Activity calls are given as the source filed them. No cut-off for these calls is given here.
Experiments:
Mus musculus [1] = assay: Analgesic activity in sc dosed Swiss-Webster mouse assessed as reduction of acetylcholine-induced writhing; type: functional; conditions: Mus musculus, Swiss-Webster, sc; read-out: ED50
Mus musculus [2] = assay: Toxicity in Swiss-Webster mouse assessed as stimulation of straub tail at 2.5 mg/kg, sc after 15 to 25 mins; type: organism-based; parameters: dose 2.5 mg/kg, route subcutaneous; conditions: in vivo
Rattus norvegicus [3] = assay: Narcotic analgesic activity in fasted Sprague-Dawley rat at 120 mg/kg, po measured at 15 mins by D'Amour-Smith tail-flick test relative to control; type: functional
Rattus norvegicus [4] = assay: Hypoglycemic activity in glucose loaded Sprague-Dawley rat assessed as reduction of blood glucose level at 88 mg/kg, po relative to control; type: functional; parameters: scale not given: the % may be the effect or the level left
Rattus norvegicus [5] = assay: Narcotic analgesic activity in fed Sprague-Dawley rat at 240 mg/kg, sc measured at 30 mins by D'Amour-Smith tail-flick test; type: functional; conditions: route subcutaneous
Rattus norvegicus [6] = assay: Narcotic analgesic activity in fasted Sprague-Dawley rat at 120 mg/kg, po measured at 60 mins by D'Amour-Smith tail-flick test relative to control; type: functional
Rattus norvegicus [7] = assay: Hypoglycemic activity in Sprague-Dawley rat assessed as reduction of blood glucose level at 88 mg/kg, po by glucagon-impaired glucose disposal test in presence of microsomal enzyme inhibitor SKF 525-A; type: functional, organism-based; parameters: dose 88 mg/kg
Rattus norvegicus [8] = assay: Hypoglycemic activity in Sprague-Dawley rat assessed as reduction of blood glucose level at 100 mg/kg, po; type: functional, organism-based; parameters: dose 100 mg/kg
Rattus norvegicus [9] = assay: Narcotic analgesic activity in fasted Sprague-Dawley rat at 120 mg/kg,sc measured at 30 mins by D'Amour-Smith tail-flick test in presence of opioid antagonist nalorphine; type: functional, organism-based; parameters: dose 120 mg/kg
Rattus norvegicus [10] = assay: Hypoglycemic activity in Sprague-Dawley rat assessed as reduction of blood glucose level at 88 mg/kg, po by glucagon-impaired glucose disposal test in presence of opioid antagonist nalorphine; type: functional, organism-based; parameters: dose 88 mg/kg
Rattus norvegicus [11] = species on record: Rattus norvegicus; assay: Narcotic analgesic activity in Sprague-Dawley rat at 15 mins by D'Amour-Smith tail-flick test in presence of microsomal enzyme inhibitor SKF 525-A; type: functional, organism-based
Rattus norvegicus [12] = assay: Toxicity in Sprague-Dawley rat assessed as rigidity at 240 mg/kg, sc; type: organism-based; parameters: dose 240 mg/kg, route subcutaneous; conditions: in vivo
Rattus norvegicus [13] = assay: Toxicity in Sprague-Dawley rat assessed as tremor at 240 mg/kg, sc; type: organism-based; parameters: dose 240 mg/kg, route subcutaneous; conditions: in vivo
Rattus norvegicus [14] = assay: Hypoglycemic activity in Sprague-Dawley rat assessed as reduction of blood glucose level at 88 mg/kg, po by glucagon-impaired glucose disposal test relative to control; type: functional; parameters: scale not given: the % may be the effect or the level left
Rattus norvegicus [15] = assay: Hypoglycemic activity in Sprague-Dawley rat assessed as reduction of blood glucose level at 100 mg/kg, po by glucagon-impaired glucose disposal test relative to control; type: functional; parameters: scale not given: the % may be the effect or the level left
Rattus norvegicus [16] = assay: Narcotic analgesic activity in fasted Sprague-Dawley rat at 480 mg/kg, po measured at 60 mins by D'Amour-Smith tail-flick test relative to control; type: functional
Mus musculus [17] = assay: Analgesic activity in po dosed Swiss-Webster mouse assessed as reduction of acetylcholine-induced writhing; type: functional
Rattus norvegicus [18] = assay: Toxicity in Sprague-Dawley rat assessed as tremor at 480 mg/kg, po; type: organism-based; parameters: dose 480 mg/kg, route oral; conditions: in vivo
Rattus norvegicus [19] = assay: Toxicity in Sprague-Dawley rat assessed as hyperexcitability at 480 mg/kg, po; type: organism-based; parameters: dose 480 mg/kg, route oral; conditions: in vivo
Rattus norvegicus [20] = assay: Hypoglycemic activity in glucose loaded Sprague-Dawley rat assessed as reduction of blood glucose level at 100 mg/kg, po relative to control; type: functional; parameters: scale not given: the % may be the effect or the level left
Rattus norvegicus [21] = assay: Narcotic analgesic activity in fasted Sprague-Dawley rat at 240 mg/kg, po measured at 15 mins by D'Amour-Smith tail-flick test relative to control; type: functional
Mus musculus [22] = assay: Analgesic activity in Swiss-Webster mouse assessed as reduction of acetylcholine-induced writhing at 75 mg/kg, sc relative to control; type: functional; parameters: scale not given: the % may be the effect or the level left; conditions: route subcutaneous
Rattus norvegicus [23] = species on record: Rattus norvegicus; assay: Narcotic analgesic activity in Sprague-Dawley rat measured at 15 mins by D'Amour-Smith tail-flick test relative to control; type: functional
Rattus norvegicus [24] = assay: Analgesic activity in rat assessed as protection against intraarterial bradykinin-induced pain response at 50 mg/kg, sc relative to control; type: functional; conditions: route subcutaneous
Rattus norvegicus [25] = assay: Toxicity in Sprague-Dawley rat assessed as convulsion at 240 mg/kg, sc; type: organism-based; parameters: dose 240 mg/kg, route subcutaneous; conditions: in vivo
Rattus norvegicus [26] = assay: Hypoglycemic activity in Sprague-Dawley rat assessed as reduction of blood glucose level at 87 mg/kg, po by glucagon-impaired glucose disposal test relative to control; type: functional; parameters: scale not given: the % may be the effect or the level left
Rattus norvegicus [27] = assay: Hypoglycemic activity in glucose loaded Sprague-Dawley rat assessed as reduction of blood glucose level at 64 mg/kg, po relative to control; type: functional; parameters: scale not given: the % may be the effect or the level left
Rattus norvegicus [28] = assay: Toxicity in Sprague-Dawley rat assessed as very rigid structure at 240 mg/kg, po; type: organism-based; parameters: dose 240 mg/kg, route oral; conditions: in vivo
Rattus norvegicus [29] = assay: Hypoglycemic activity in glucose loaded Sprague-Dawley rat assessed as reduction of blood glucose level at 64 mg/kg, po in presence of microsomal enzyme inhibitor SKF 525-A; type: functional, organism-based; parameters: dose 64 mg/kg
Mus musculus [30] = assay: Analgesic activity in Swiss-Webster mouse assessed as reduction of acetylcholine-induced writhing at 25 mg/kg, sc relative to control; type: functional; parameters: scale not given: the % may be the effect or the level left; conditions: route subcutaneous
Rattus norvegicus [31] = assay: Toxicity in Sprague-Dawley rat assessed as convulsion at 240 mg/kg, po; type: organism-based; parameters: dose 240 mg/kg, route oral; conditions: in vivo
Rattus norvegicus [32] = assay: Hypoglycemic activity in fasted Sprague-Dawley rat assessed as reduction of blood glucose level at 89 mg/kg, po relative to control; type: functional; parameters: scale not given: the % may be the effect or the level left

CCOC(=O)[C@H]1C[C@H]2CC[C@@H](N2)[C@H]1c1cccs1.Cl
ED50 (Mus musculus [1]): 2.8 mg/kg
Activity (Mus musculus [2]): Toxic
Activity (Rattus norvegicus [3]): 85%
Activity (Rattus norvegicus [4]): 66%

COC(=O)[C@@H]1C[C@@H]2CC[C@@H]([C@@H]1c1cccs1)N2C.Cl
Activity (Rattus norvegicus [5]): 62%
Activity (Rattus norvegicus [6]): 26%
Activity (Rattus norvegicus [7]): inactive
Activity (Rattus norvegicus [8]): inactive
Activity (Rattus norvegicus [9]): inactive
Activity (Rattus norvegicus [10]): Active
Activity (Rattus norvegicus [11]): inactive
Activity (Rattus norvegicus [12]): Toxic
Activity (Rattus norvegicus [13]): Toxic
Activity (Rattus norvegicus [14]): <20%

COC(=O)[C@H]1C[C@H]2CC[C@H]([C@H]1c1ccccc1)N2Cc1ccccc1
Activity (Rattus norvegicus [15]): 42%
Activity (Rattus norvegicus [16]): 60%
ED50 (Mus musculus [17]): 21 mg/kg
Activity (Rattus norvegicus [18]): Toxic
Activity (Rattus norvegicus [19]): Toxic

CCC(CC)CN1[C@@H]2CC[C@@H]1[C@@H](c1cccs1)[C@@H](C(=O)OC)C2
Activity (Rattus norvegicus [20]): 69%
Activity (Rattus norvegicus [21]): 72%
Activity (Mus musculus [22]): 7%
Activity (Rattus norvegicus [23]): 24%

CC(=O)[C@H]1C[C@H]2CC[C@H]([C@H]1c1cccs1)N2C.Cl
Activity (Rattus norvegicus [5]): 55%
ED50 (Mus musculus [1]): 12 mg/kg
Activity (Rattus norvegicus [24]): 80%
Activity (Rattus norvegicus [13]): Toxic
Activity (Rattus norvegicus [25]): Toxic
Activity (Rattus norvegicus [26]): 26%

COC(=O)[C@H]1C[C@H]2CC[C@H]([C@H]1c1cccs1)N2CCC#N.Cc1ccc(S(=O)(=O)O)cc1
Activity (Rattus norvegicus [27]): 64%
Activity (Rattus norvegicus [21]): 100%
ED50 (Mus musculus [17]): 60 mg/kg
Activity (Rattus norvegicus [28]): Toxic
Activity (Rattus norvegicus [29]): Active

COC(=O)[C@H]1C[C@H]2CC[C@H]([C@H]1c1cccs1)N2C(C)C.Cl
Activity (Rattus norvegicus [21]): 87%
Activity (Mus musculus [30]): 13%
Activity (Rattus norvegicus [31]): Toxic
Activity (Rattus norvegicus [32]): 40%
